Reference: ChEMBL document CHEMBL1201862, “PubChem BioAssay data set” (2004)
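These data come from cells grown in 96-well plates and exposed to compound for 48 hours at five concentrations. At the GI50, growth is halved.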 Active and inactive are the calls of the source. Cut-off read from the data, not from the text of the source: active = GI50 up to about 1.1 µM and inactive = higher. Where a SMILES comes first, the peptide text is derived from it. [ ]: non-standard residue; d: D form. The star is where a group is joined. mTyr = N[CH](Cc1cccc(O)c1)C(=O)O; Cbz = O=C(OCc1ccccc1)*; OBn = c1ccc(CO*)cc1

Legend:
Assay in all cases: NCI-60 cell line screen, 48 h
SNB-75 = tested on: SNB-75
RPMI-8226 = tested on: RPMI-8226
OVCAR-3 = tested on: OVCAR-3
UACC-257 = tested on: UACC-257
KM12 = tested on: KM12
A498 = tested on: A498
SN12C = tested on: SN12C
RXF 393 = tested on: RXF 393
SK-MEL-5 = tested on: SK-MEL-5
HL-60 = tested on: HL-60
HCT-116 = tested on: HCT-116
HCC 2998 = tested on: HCC 2998
A549 = tested on: A549
UACC-62 = tested on: UACC-62
M14 = tested on: M14
EKVX = tested on: EKVX
CCRF-CEM = tested on: CCRF-CEM
OVCAR-5 = tested on: OVCAR-5
PC-3 = tested on: PC-3
NCI/ADR-RES = tested on: NCI/ADR-RES

Measured: GI50

Cc1ccccc1Nc1nc2c(s1)C(=O)c1ccccc1C2=O
inactive: SNB-75 15.3 µM | RPMI-8226 2.93 µM | OVCAR-3 2.24 µM | UACC-257 5.5 µM | KM12 9.38 µM | A498 22.4 µM | SN12C 3.3 µM | RXF 393 8.87 µM | SK-MEL-5 2.92 µM | HL-60 2.31 µM | HCT-116 2.36 µM | HCC 2998 17.7 µM | A549 10.2 µM | UACC-62 4.55 µM | M14 5.82 µM | EKVX 13.3 µM | CCRF-CEM 3.34 µM | OVCAR-5 21.5 µM | PC-3 2.26 µM

O=C(Cc1ccccc1)Oc1ccc2c(-c3ccccc3)c(C(=O)Nc3ccc(Cl)cc3)c(=O)oc2c1
inactive: SNB-75 > 100 µM | RPMI-8226 > 100 µM | OVCAR-3 > 100 µM | UACC-257 > 100 µM | KM12 > 100 µM | A498 > 100 µM | SN12C > 100 µM | RXF 393 > 100 µM | SK-MEL-5 > 100 µM | HL-60 > 100 µM | HCT-116 > 100 µM | HCC 2998 > 100 µM | A549 > 100 µM | UACC-62 > 100 µM | M14 > 100 µM | EKVX > 100 µM | CCRF-CEM > 100 µM | OVCAR-5 > 100 µM

O=C1Nc2ccc(Br)cc2/C1=N/Nc1ccc([N+](=O)[O-])cc1
inactive: SNB-75 19.3 µM | RPMI-8226 16.4 µM | OVCAR-3 19.9 µM | UACC-257 20.3 µM | KM12 24.6 µM | A498 20.7 µM | SN12C 19.3 µM | RXF 393 19.5 µM | SK-MEL-5 25 µM | HL-60 12.6 µM | HCT-116 17.1 µM | HCC 2998 33.3 µM | A549 19 µM | UACC-62 27.9 µM | M14 23.6 µM | EKVX 23.9 µM | CCRF-CEM 33 µM

COc1ccccc1NC(=O)C(C#N)=C(SC)SC
inactive: RPMI-8226 > 100 µM | OVCAR-3 > 100 µM | UACC-257 > 100 µM | KM12 6.78 µM | A498 > 100 µM | SN12C > 100 µM | RXF 393 > 100 µM | SK-MEL-5 > 100 µM | HL-60 > 100 µM | HCT-116 > 100 µM | HCC 2998 > 100 µM | A549 > 100 µM | UACC-62 > 100 µM | M14 > 100 µM | EKVX > 100 µM | CCRF-CEM 89.5 µM | OVCAR-5 > 100 µM | PC-3 > 100 µM

O=C(Cc1ccccc1)C(c1ccccc1)S(=O)(=O)c1ccccc1 (stereo unspecified)
inactive: SNB-75 23 µM | RPMI-8226 > 100 µM | OVCAR-3 > 100 µM | UACC-257 > 100 µM | KM12 > 100 µM | A498 > 100 µM | SN12C > 100 µM | RXF 393 67 µM | SK-MEL-5 > 100 µM | HL-60 > 100 µM | HCT-116 59.3 µM | HCC 2998 > 100 µM | A549 59.4 µM | UACC-62 75.2 µM | M14 > 100 µM | EKVX > 100 µM | CCRF-CEM > 100 µM | OVCAR-5 > 100 µM

COC(=O)C(Cc1cccc(O)c1)NC(=O)C(CC(=O)OCc1ccccc1)NC(=O)OCc1ccccc1 (stereo unspecified) (Cbz-Asp(OBn)-[mTyr]-OMe; configuration not given here)
inactive: SNB-75 > 100 µM | RPMI-8226 70.5 µM | UACC-257 > 100 µM | KM12 > 100 µM | A498 > 100 µM | SN12C > 100 µM | RXF 393 > 100 µM | SK-MEL-5 > 100 µM | HL-60 35.4 µM | HCT-116 > 100 µM | HCC 2998 > 100 µM | A549 > 100 µM | UACC-62 65.5 µM | M14 > 100 µM | EKVX > 100 µM | OVCAR-5 > 100 µM | PC-3 > 100 µM

CCn1c2ccccc2c2ccc(C3C(C(=O)OC)=C(C)NC(C)=C3C(=O)OC)cc21
inactive: SNB-75 51.5 µM | RPMI-8226 21.1 µM | OVCAR-3 33.3 µM | UACC-257 48.2 µM | KM12 33.7 µM | A498 19.8 µM | SN12C 45.1 µM | RXF 393 15.4 µM | SK-MEL-5 43.6 µM | HL-60 20.1 µM | HCT-116 43.7 µM | HCC 2998 42.5 µM | NCI/ADR-RES 38.5 µM | A549 46.6 µM | UACC-62 87.9 µM | EKVX 45.6 µM | CCRF-CEM 30.4 µM | OVCAR-5 > 100 µM

CCOC(=O)NN1C(=O)C(=P(c2ccccc2)(c2ccccc2)c2ccccc2)C(C(=O)OCC)=C1C
inactive: SNB-75 > 100 µM | RPMI-8226 > 100 µM | OVCAR-3 > 100 µM | UACC-257 > 100 µM | KM12 > 100 µM | A498 > 100 µM | SN12C > 100 µM | RXF 393 > 100 µM | SK-MEL-5 > 100 µM | HL-60 > 100 µM | HCT-116 > 100 µM | HCC 2998 > 100 µM | A549 > 100 µM | UACC-62 > 100 µM | M14 > 100 µM | EKVX > 100 µM | CCRF-CEM > 100 µM | OVCAR-5 > 100 µM

Fc1cccc(C2SCc3nc4ccccc4n32)c1F (stereo unspecified)
inactive: SNB-75 > 100 µM | RPMI-8226 31.1 µM | OVCAR-3 29.1 µM | UACC-257 32.7 µM | KM12 66.1 µM | A498 42.2 µM | SN12C 89.7 µM | RXF 393 54.2 µM | SK-MEL-5 21.6 µM | HL-60 16.1 µM | HCT-116 48.5 µM | HCC 2998 > 100 µM | A549 69 µM | UACC-62 63.5 µM | M14 62.4 µM | EKVX 36.6 µM | CCRF-CEM 42 µM | OVCAR-5 > 100 µM

Cc1cccc(C(C)C)c1NC(=O)CC1C(=O)Nc2ccccc2S1(=O)=O (stereo unspecified)
inactive: SNB-75 21.5 µM | RPMI-8226 3.14 µM | OVCAR-3 12.2 µM | UACC-257 23.6 µM | KM12 19.4 µM | A498 11.7 µM | SN12C 23.2 µM | RXF 393 10.2 µM | SK-MEL-5 12.3 µM | HL-60 5.28 µM | HCT-116 15.7 µM | HCC 2998 22.9 µM | A549 16.8 µM | UACC-62 11.8 µM | M14 15.5 µM | EKVX 16 µM | CCRF-CEM 7.24 µM | OVCAR-5 39.7 µM

O=C(CNc1ccc(Cl)cc1Cl)NC1C=Cc2ccc(S(=O)(=O)Nc3ccc(Cl)cc3Cl)cc2C1=O (stereo unspecified)
inactive: SNB-75 > 100 µM | RPMI-8226 11 µM | OVCAR-3 > 100 µM | UACC-257 > 100 µM | KM12 > 100 µM | SN12C > 100 µM | HL-60 > 100 µM | HCT-116 > 100 µM | HCC 2998 > 100 µM | NCI/ADR-RES > 100 µM | A549 > 100 µM | UACC-62 > 100 µM | M14 > 100 µM | EKVX > 100 µM | CCRF-CEM 9.18 µM | OVCAR-5 > 100 µM | PC-3 > 100 µM
